“Also recorded” adds a separate entry of the source. Marks after values point to notes of the source that are not given here.
Assays:
[1] = test system: MCF-7 human mammary tumor cells; assay: inhibition of growth of MCF-7 cells (tritiated thymidine incorporation); details: for IC30 for inhibition of growth: MCF-7, 24 hours drug exposure; for fold increase in the cancer growth inhibition potency of paclitaxel: MCF-7, anthracycline at IC30 concentration
Protocol: (§1) The inhibitory effects of doxorubicin (I), 13-deoxydoxorubicin (II), 5-imino-13-deoxydoxorubicin (III), daunorubicin (IV), 13-deoxydaunorubicin (V), and 5-imino-13-deoxydaunorubicin (VI) on the growth of MCF-7 human mammary tumor cells and P388 murine leukemia cells are measured in vitro. The MCF-7 and P388 cell lines used for these studies are cultured and maintained utilizing the protocol from the American Type Culture Collection (ATCC) protocols. MCF-7 media was EMEM (Eagle Minimum
(§2) Essential Medium; ATCC) and P388 media is Dulbecco's modified Eagle's medium (DMEM, ATCC). Working media for MCF-7 and P388 is made by the addition of 50 ml FBS (fetal bovine serum, MCF-7) or 50 ml horse serum (ATCC, P388) to 450 ml EMEM media (MCF-7) or DMEM (P388). 4.5 g/L glucose (Sigma) is also added to the DMEM (P388). Five ml Penicillin/Streptomycin (P/S, Gibco) is added to the MCF-7 and P388 working media. Cells are grown at 37° C. in 5% CO2 for 1 week, and 25 ml fresh media is added. Cells are passaged when they reach a density of 1-2×10^6 cells/ml by transferring to a new flask containing fresh media.
(§3) Using sterile technique, MCF-7 cells are harvested from the T-75 flasks by removing and discarding the culture medium. 5 ml of 0.25% Trypsin-EDTA solution (Sigma) is added to each flask to de-attach the cells. The flask is placed in the incubator for 5-10 minutes to facilitate dispersal. 10 ml of complete growth medium is added, directly decanted into 50 ml tubes then centrifuged for 10 minutes at 200×g. P388 cells are harvested by directly decanting media into 50 ml tubes and centrifuging for 10 minutes at 200×g. The pellet (MCF-7 and P388) is resuspended in 5 ml and the cells dispersed by expelling gently through an 18 g needle fitted to a syringe. The cells are counted using a hemocytometer and diluted with media to 150,000 cells/ml. The diluted cells are pipetted into 96-well plates at a concentration of 15,000 cells/well in 100 μl. The plates are covered and incubated at 37° C. for 48 hours.
(§4) Dilutions of the anthracyclines and paclitaxel are made up in cell-specific serum-free media. The drugs at appropriate concentrations are added to all wells in 50 μl aliquots and the cells are grown in the presence of the drugs (anthracyclines/paclitaxel) for 24 hours. Tritiated thymidine (ICN) is diluted in serum-free cell-specific media to a concentration of 1 μCi/50 μl. All wells used for analysis are spiked with 50 μl aliquots of media containing tritiated thymidine. Following a 4-hour exposure to isotope, tritiated thymidine incorporation into DNA is measured by hypotonic lysis of cells with deionized water and collection of cellular contents onto Whatman GF-C filters using a Brandel cell harvester. Prior to harvesting MCF-7 cells, the media is aspirated, 150 μL of 0.25% Trypsin-EDTA is added to each well to de-attach the cells. Filters are allowed to dry, placed into 7 ml scintillation vials containing 5 ml scintillation cocktail and counted in a scintillation counter. In preliminary experiments, the concentrations of anthracyclines that would produce a 30% inhibition of growth (inhibitory concentration 30, IC30) on MCF-7 cells and 10% inhibition of growth (IC10) on P388 cells are determined.

[2] = test system: P388 murine leukemia cells; assay: inhibition of growth of P388 cells in vitro (tritiated thymidine incorporation); details: for IC10 for inhibition of growth: P388, 24 hours drug exposure
Protocol: as §1, §2, §3, §4

[3] = test system: P388 murine leukemia; assay: in vivo anticancer activity in murine leukemia model, CD2F1 mice injected with P388 cells; details: for Median survival time: 1 million P388 cells ip; for T/C % (median survival time of treated mice divided by that of control mice x 100): P388 ip
Protocol: Groups of CD2F1 mice are injected intraperitoneally (ip) with 1 million P388 cells. There were 10 mice per group. In the doxorubicin group 0.8 mg/kg is administered ip consecutively for 9 days on days 1-9 of the study. […] A control group is injected with vehicle. Median survival times are calculated for each group. Activity of a compound is expressed as the amount of prolonged survival (median survival of the treated group divided by the median survival time of the control group, multiplied by 100, T/C %).

[4] = test system: breast cancer; details: breast cancer patients; cited from earlier work
[5] = test system: H9c2 cells; assay: growth inhibition of non-cancerous H9c2 cells; type: cell-based; details: Rattus norvegicus
[6] = cardiotoxicity evaluation in chronically treated rabbits (LVFS, hematocrit, isolated atria dF/dt, histopathology); details: rabbit; for Histopathology Score / dF/dt (myocardial contractility of isolated atria) / FS % (left ventricular fractional shortening), Post / cardiotoxicity with chronic dosing / HCT % (hematocrit), Post: in vivo; for FS % (left ventricular fractional shortening), Post / HCT % (hematocrit), Post: iv
Protocol: Twenty-four age matched New Zealand white rabbits weighing 3.0 kg are randomized into four groups (N=6 rabbits/group). […] Doses of drug or vehicle are administered iv into an ear vein two times per week. Serum and blood samples are obtained weekly and M-mode echocardiology performed weekly or every other week to obtain left ventricular fractional shortening (LVFS) to assess cardiac function. Food consumption is measured daily and body weight is measured weekly. Control rabbits are fed the same amount of food as doxorubicin treated rabbits (pair fed). At sacrifice, apex and left ventricular free wall samples are obtained and preserved in 10% buffered formalin for histologic scoring and analysis via light microscopy. Left ventricular tissue samples are also obtained to assess cardiac levels of anthracyclines and metabolites.
At sacrifice, the heart is removed and two types of tissue are sampled from the heart, ventricular apex and left ventricular free wall, and stored in 10% formalin. Each tissue is prepared for three different stains: H&E, toluidine blue, and trichcrome. The tissues are scored (blind) using a modification of the Billingham scale. The scoring scale is from 0-4 with 0=<10% of cells or tissue lesioned, 1 to 10%-19% of cells or tissue lesioned, 2 to 20%-29% of cells or tissue lesioned, 3 to 30%-39% of cells or tissue lesioned, 4 to 40% or more cells or tissue lesioned. The ventricular apex and the left ventricular free wall are analyzed separately. Each receives a score for mononuclear infiltration, fibrosis, and cytoplasmic vacuolization. Thus, each rabbit has six scores, three for the apex (mononuclear infiltration, fibrosis, and cytoplasmic vacuolization) and three for the left ventricular free wall (mononuclear infiltration, fibrosis, and cytoplasmic vacuolization). Each score is obtained by looking at all three stains.
Also at sacrifice, left atria are isolated, divided in half and both halves studied to assess cardiac function in vitro in a tissue bath where afterload and preload remain constant throughout the study. Cardiac contractility is measured as the maximum rate of force development (dF/dt) in response to contractions induced by electrical stimulation via punctuate electrodes located at the base of each muscle preparation.

[7] = optimum antitumor dose relative to doxorubicin; details: in vivo
[8] = H9c2, H9c2, anthracycline alone
[9] = H9c2, H9c2, in the presence of weak growth inhibitory concentrations of paclitaxel (IC10)

SMILES	IC30 for inhibition of growth [1]	IC10 for inhibition of growth [2]	Median survival time ([3]; drug ip on days 1-9, n = 10)	T/C % (median survival time of treated mice divided by that of control mice x 100) ([3]; drug ip on days 1-9, n = 10)	fold increase in the cancer growth inhibition potency of paclitaxel [1]	cardiotoxicity with chronic dosing [6]	HCT % (hematocrit), Post [6]	other results
CC[C@]1(O)Cc2c(O)c3c(c(O)c2[C@@H](OC2CC(N)C(O)C(C)O2)C1)C(=N)c1c(OC)cccc1C3=O (stereo partly drawn) [Compound VI]	875 nM	1700 nM	–	–	–	–	–	–
CC[C@]1(O)Cc2c(O)c3c(c(O)c2[C@@H](OC2CC(N)C(O)C(C)O2)C1)C(=O)c1c(OC)cccc1C3=O (stereo partly drawn) [Compound V, 13-deoxydaunorubicin]	645 nM	700 nM	–	–	–	–	–	–
COc1cccc2c1C(=O)c1c(O)c3c(c(O)c1C2=O)C[C@@](O)(C(C)=O)C[C@@H]3OC1CC(N)C(O)C(C)O1 (stereo partly drawn) [Daunorubicin (IV), daunorubicin]	750 nM	300 nM	–	–	–	–	–	–
COc1cccc2c1C(=O)c1c(O)c3c(c(O)c1C2=O)C[C@@](O)(C(=O)CO)C[C@@H]3OC1CC(N)C(O)C(C)O1 (stereo partly drawn) [Doxorubicin (I), doxorubicin]	100 nM	250 nM	28 days	147* %	2.8 fold	profound cardiotoxicity	27.5* %	T/C % (median survival time of treated mice divided by that of control mice x 100) ([3]; drug ip on days 1-9, n = 10, listed as Doxorubicin): 147%; anticancer response rate [4]: 35-50%; IC50 ([5]; H9c2, anthracycline alone): 210 nM; Histopathology Score ([6]; New Zealand white): 1.81*,^+; dF/dt (myocardial contractility of isolated atria) ([6]; New Zealand white): 15.1*,^+ gms/sec; FS % (left ventricular fractional shortening), Post ([6]; New Zealand white): 27.4*,^+ %; cumulative cardiotoxic dose ([6]; 1.25 mg/kg twice/week for 7 weeks): 17.5 mg/kg; Histopathology Score [6]: significantly increased; dF/dt (myocardial contractility of isolated atria) [6]: significantly reduced; FS % (left ventricular fractional shortening), Post [6]: statistically significant decrease
COc1cccc2c1C(=N)c1c(O)c3c(c(O)c1C2=O)C[C@@](O)(CCO)C[C@@H]3OC1CC(N)C(O)C(C)O1 (stereo partly drawn) [Compound III]	750 nM	3500 nM	27 days	142* %	220 fold	devoid of cardiotoxicity	33.3* %	IC50 [5, 8]: 1500 nM; IC50 [5, 9]: 210 nM; optimum antitumor dose relative to the dose of doxorubicin [7]: up to 7 times
CC(=O)O[C@H]1C(=O)[C@@]2(C)[C@H]([C@H](OC(=O)c3ccccc3)[C@]3(O)C[C@H](OC(=O)[C@H](O)[C@@H](NC(=O)c4ccccc4)c4ccccc4)C(C)=C1C3(C)C)[C@]1(OC(C)=O)CO[C@@H]1C[C@@H]2O [Paclitaxel, paclitaxel]	–	–	–	–	–	–	–	anticancer response rate [4]: 32-62%; growth inhibitory effect ([1]; MCF7, paclitaxel alone, 1 to 50 nM): no growth inhibitory effect; IC50 of paclitaxel for inhibition of growth ([2]; P388, paclitaxel alone or in the presence of the anthracycline at its IC10 concentration, mean ± standard error, n = 3): no inhibitory activity; also recorded: Inactive; growth inhibitory effect ([2]; P388, paclitaxel alone, concentrations up to 2000 nM): no growth inhibitory effect
COc1cccc2c1C(=O)c1c(O)c3c(c(O)c1C2=O)C[C@@](O)(CCO)C[C@@H]3OC1CC(N)C(O)C(C)O1 (stereo partly drawn) [Compound II, 13-deoxydoxorubicin]	450 nM	1100 nM	27 days	142* %	20 fold	devoid of cardiotoxicity	23.8* %	Median survival time ([3]; drug ip on days 1-9, n = 10, listed as 13-deoxydoxorubicin): significant increase in median survival time; IC50 [5, 8]: 700 nM; IC50 [5, 9]: 400 nM; optimum antitumor dose relative to the dose of doxorubicin [7]: approximately twice

— patent US8158591B2, “Anticancer treatment with a combination of taxanes and 13-deoxyanthracyclines” (Gem Pharmaceuticals, LLC, priority 2006, dated 2012)
